The Kinase Knowledgebase extract (Sharma et al. 2016)

Molecular target: PIK3CG (human) (UniProt P48736)
Assay: Assessment of PIK3CG Kinase Activity

Sequence of PIK3CG (human) (P48736 whole entry, looked up): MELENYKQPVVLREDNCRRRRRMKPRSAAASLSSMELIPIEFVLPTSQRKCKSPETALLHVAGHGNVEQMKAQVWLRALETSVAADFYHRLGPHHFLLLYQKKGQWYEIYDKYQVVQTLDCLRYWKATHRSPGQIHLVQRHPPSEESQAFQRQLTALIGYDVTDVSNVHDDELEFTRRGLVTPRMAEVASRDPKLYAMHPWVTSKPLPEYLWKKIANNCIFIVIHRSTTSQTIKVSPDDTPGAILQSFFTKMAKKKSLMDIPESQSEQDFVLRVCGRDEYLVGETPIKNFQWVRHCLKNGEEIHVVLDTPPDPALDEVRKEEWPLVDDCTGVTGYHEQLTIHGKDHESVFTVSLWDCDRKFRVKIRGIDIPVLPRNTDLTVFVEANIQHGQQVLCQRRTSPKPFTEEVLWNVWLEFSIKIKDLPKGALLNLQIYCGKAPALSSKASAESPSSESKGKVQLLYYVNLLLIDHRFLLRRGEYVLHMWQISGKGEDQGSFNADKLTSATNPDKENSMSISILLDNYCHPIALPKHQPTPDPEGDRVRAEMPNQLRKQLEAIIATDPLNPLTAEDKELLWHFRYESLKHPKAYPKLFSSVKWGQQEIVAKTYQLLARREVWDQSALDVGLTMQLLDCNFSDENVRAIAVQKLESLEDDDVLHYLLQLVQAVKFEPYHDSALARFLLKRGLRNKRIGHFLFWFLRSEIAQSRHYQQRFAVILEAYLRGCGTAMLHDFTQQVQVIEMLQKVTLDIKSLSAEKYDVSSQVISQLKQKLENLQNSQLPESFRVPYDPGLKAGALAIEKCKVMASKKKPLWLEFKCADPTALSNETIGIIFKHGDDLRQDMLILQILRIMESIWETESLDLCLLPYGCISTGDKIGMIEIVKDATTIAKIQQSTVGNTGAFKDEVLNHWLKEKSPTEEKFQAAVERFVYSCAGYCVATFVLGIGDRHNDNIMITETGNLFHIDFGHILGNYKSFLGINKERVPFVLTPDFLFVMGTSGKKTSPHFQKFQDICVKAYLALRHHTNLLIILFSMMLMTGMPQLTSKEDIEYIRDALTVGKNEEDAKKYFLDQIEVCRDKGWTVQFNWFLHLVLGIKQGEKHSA

Row | Compound | IC50 [nM]
1 | COc1cc2c(Oc3ccc(C4CCN(C(=O)C(C)(C)NC(=O)OC(C)(C)C)CC4)cc3)c(C(=O)Nc3nn[nH]n3)sc2cc1C | 20
2 | COc1cc2c(OC[C@H](C)c3ccccc3)c(C(=O)Nc3nn[nH]n3)sc2cc1C | 56
3 | COc1cc2c(Oc3ccc(C(C)(C)C)c(C(C)(C)C)c3)c(C(=O)Nc3nn[nH]n3)sc2cc1C | 2340
4 | COc1cc2c(Oc3ccc(C(O)c4ccccc4)cc3)c(C(=O)Nc3nn[nH]n3)sc2cc1C (configuration not stated) | 8
5 | COc1cc2c(Oc3ccc(C(=O)c4ccccc4)cc3)c(C(=O)Nc3nn[nH]n3)sc2cc1C | 27
6 | COc1cc2c(Oc3ccc(C4CC(C)(C)CC(C)(C)C4)cc3)c(C(=O)Nc3nn[nH]n3)sc2cc1C | 325
7 | COc1cc2sc(C(=O)Nc3nn[nH]n3)c(Oc3cccc(C(=N)N)c3)c2cc1C | 388
8 | COc1cc2sc(C(=O)Nc3nnn[nH]3)c(Oc3ccc(CCCSC4CCCCC4)cc3)c2cc1C | 240
9 | COc1cc2sc(C(=O)Nc3nnn[nH]3)c(OCc3ccc4ccccc4c3)c2cc1OC | 210
10 | COc1cc2sc(C(=O)Nc3nnn[nH]3)c(Oc3ccc(CCCSc4ccc(Cl)cc4)cc3)c2cc1C | 2610

Now from value to compound:

Row | IC50 [nM] | Compound
11 | 715 | COc1cc2c(Oc3ccc(C(C4CCCCC4)N4CCCCC4)cc3)c(C(=O)Nc3nn[nH]n3)sc2cc1C (configuration not stated)
12 | 9 | COc1cc2c(Oc3ccc(C4CCOCC4)cc3)c(C(=O)Nc3nn[nH]n3)sc2cc1C
13 | 8 | COc1cc2c(Oc3ccc(C4CCSCC4)cc3)c(C(=O)Nc3nn[nH]n3)sc2cc1C
14 | 11 | COc1cc2c(Oc3ccc(C4CCN(C(=O)C(C)C)CC4)cc3)c(C(=O)Nc3nn[nH]n3)sc2cc1C
15 | 365 | COc1cc2c(Oc3ccc(C4CCNCC4)cc3)c(C(=O)Nc3nn[nH]n3)sc2cc1C
16 | 8 | COc1cc2c(Oc3ccc(C4CCCC(O)C4)cc3)c(C(=O)Nc3nn[nH]n3)sc2cc1C (configuration not stated)
17 | 14 | COc1cc2c(Oc3ccc(C4CCN(C(C)=O)CC4)cc3)c(C(=O)Nc3nn[nH]n3)sc2cc1C
